Reference: patent publication EP0096006A2, “3-(Ureidocyclohexylamino)-propane-1,2-diol derivatives, process for their preparation, pharmaceutical preparations containing these compounds and their therapeutical use” (CIBA-GEIGY AG, priority 1982, dated 1983)

Tests used:
[1] = system: renal hypertensiven Hunden; assay: Arterial pressure and heart rate in conscious renal hypertensive dogs, oral dosing; type: in vivo, Hunde; conditions: oral dose 10 mg/kg
From the text: Die antihypertensive und bradycardische Wirkung wird ebenso an wachen, chronisch hypertensiven Hunden untersucht; die Hypertension wird dabei durch eine Schwächung der Nierenfunktion erzeugt. Der arterielle Druck wird durch direkte perkutane Punktion der femuralen Arterie, unter Verwendung einer Nadel, die an ein Uebertragungsinstrument angeschlossen ist, registriert. Nach der Aufnahme von Kontrolldaten werden die Hunde oral einmal täglich, 4 Tage lang, mit Kapseln, welche die Testverbindung enthalten, behandelt. Der Blutdruck und die Herzfrequenz werden jeweils 1,5, 3, 6 und 24 Stunden nach der täglichen Dosis bestimmt und die Ergebnisse mit den vor der Behandlung erhaltenen Kontrollwerten verglichen.

[2] = system: spontan hypertensiven Ratten; assay: Systolic blood pressure and heart rate in conscious spontaneously hypertensive rats (tail sphygmomanometry), oral dosing; type: in vivo; conditions: for Abnahme des Bludrucks: second day, 2 hours after dosing; for antihypertensive Wirkung / bradycardische (d.h. die Herzfrequenz herabsetzende) Wirkung: low doses of 10 mg/kg or below
From the text: Die in vivo blutdrucksenkende Wirkung wird entweder direkt mit einem Katheter, der z.B. in die fumurale Arterie eines Hundes eingeführt ist, oder indirekt durch Sphygmomanometrie am Rattenschwanz, und einem Uebertragungsinstrument registriert. Der Bludruck wird vor und nach der Verabreichung des Wirkstoffes in mmHg bestimmt.
So kann die antihypertensive Wirkung und die Reduktion der Herzfrequenz bei spontan hypertensiven Ratten nachgewiesen werden, indem man indirekt durch Sphygmomanometrie am Rattenschwanz den systolischen Druck misst. Wache Ratten werden einzeln in Käfige gesperrt, welche sich in einem angenehm warmen Raum befinden. Nachdem Kontrollwerte für Blutdruck und Herzfrequenz gemessen words-n sind, werden die Testverbindungen oral einmal täglich an 2 oder 4 aufeinanderfolgenden Tagen verabreicht. Der Blutdruck wird gewöhnlich 24 Stunden nach der ersten Dosis und dann jeweils 2,0, 4,0 und 24 Stunden nach jeder täglichen Dosis bestimmt, und die Wirkung mit der bei solchen Ratten verglichen, die mit dem Trägermaterial behandelt worden sind.
Gemäss der vorher beschriebenen Methode werden wache Ratten einzeln in Käfige gestellt. Zuerst werden die Kontrollwerte des Blutdrucks ermittelt und dann die einzelnen Testverbindungen einmal täglich, an zwei aufeinanderfolgenden Tagen, oral verabreicht.

normotensiven Kaninchen = assay: Intraocular pressure reduction in normotensive rabbits, topical application (anti-glaucoma effect); type: in vivo
Experimental: Die Anticlaucoma-Wirkung der erfindungsgemässen Verbindungen ist an der intraokularen Druckverminderung abzulesen, die an Säugetieren, z.B. bei normotensiven Kaninchen, im wesentlichen nach der von D.E. Potter und J.M. Rowland in Experimental Eye Research 27, 615-625, (1978) beschriebenen Methodik nachgewiesen werden kann. Die intraokulare Druckverminderung wird wie folgt bestimmt: 2 x 50 µl einer Lösung der Testverbindung in sterilisiertem Wasser von unterschiedlicher Konzentration werden bei männlichen, neuseeländischen Albinokaninchen, die 3-4 kg wiegen, jeweils auf ein Auge appliziert, und 2 x 50 µl des Trägermaterials werden zur Kontrolle auf das kontralaterale Auge appliziert. Der intraokulare Druck (in mm Hg) in jedem Auge wird direkt vor der Behandlung tonometrisch gemessen, und dann 1,2 bzw. 3 Stunden nach der Verabreichung. Es wird der Unterschied des intraokularen Druckes zwischen behandeltem Auge und Kontrollauge bestimmt.
Beispielsweise zeigen die erfindungsgemässen Verbindungen der Beispiele 1 und 2a, bei einer Konzentration von etwa 20 bzw.

[3] = biological target: β-adrenergischen Rezeptoren; assay: β-receptor binding test in vitro: inhibition of 3H-dihydroalprenolol binding to brain membrane preparation; design: species or system Kalb; conditions: calf brain caudate membranes; 10 min at 37°C; determined graphically; read-out: IC50 (Hemmung der spezifischen Bindung von 1,0 nM 3H-Dihydroalprenolol)
From the text: Die β-adrenergische Rezeptorbindungseigenschaften, welche β-adrenergische regulierende, z.B. blockierende Wirkung der genannten neuen Verbindungen anzeigen, werden in einem Test der β-Rezeptorbindung in vitro nach einer Modifikation des Verfahrens bestimmt, wie es in Life Sciences 17, 993 (1975) beschrieben ist.
^3H-Dihydroalprenolol wird spezifisch von Gehirnmembran-Präparaten gebunden und diese Wirkung wird durch bekannte Agonisten und Antagonisten von β-adrenergischen Rezeptoren gehemmt.
Beim Bindungstest werden 2 ml-Proben der Suspension eines Membranpräparates (welches etwa 20 mg Kalbshirn-Caudaten entspricht) in eisgekühlte Reagenzgläser gegeben, welche ^3H-Dihydroalprenolol mit oder ohne Testverbindung, frisch gelöst in 0,1% Ascorbinsäure, enthalten. Die Endkonzentration von ^3H-Dihydroalprenolol ist 1,0 nM. Die Testverbindungen werden innerhalb einer weiten Konzentrationsreihe geprüft. Die Reagenzgläser werden 10 Minuten bei 37°C inkubiert, und die Suspensionen dann sofort unter Vakuum durch Fiberglasfilter filtriert. Die Filter werden mit 15 ml kalter 50 mM Tris-HCi (pH 7,9 bei 25°C) gewaschen, zusammen mit 12 ml Szintillationslösung in Szintillationsampullen gegeben, zunächst 90 Minuten geschüttelt und dann mit dem Zählrohr auf Radioaktivität untersucht.
Die IC50 Werte (welche die Konzentration der Testverbindungen angeben, die nötig ist, um die spezifische Bindung der 1,0 nM ^3H-Dihydrcal- prenolol-Lösung um 50% zu verringern) werden graphisch bestimmt.
Die erfindungsgemässen Verbindungen hemmen die β-Rezeptorbildung des Dihydroalprenolols mit IC50 Werten von […] oder darunter. Beispielsweise weisen die Verbindungen der Beispiele 1, 2a, 3b und 3c IC50-Werte von etwa […] auf.

[4] = 50 mg/kg p.o. once daily for 2 days

Structure (SMILES) | Abnahme des Bludrucks [2, 4] [mm Hg] | antihypertensive Wirkung [2] | bradycardische (d.h. die Herzfrequenz herabsetzende) Wirkung [2] | IC50 [3] [nM] | further results
C=CCOc1ccccc1OCC(O)CN[C@H]1CC[C@@H](N2CCNC2=O)CC1 (mixture of isomers) [Beispiel 1, cis-1-(4-[3-(o-Allyloxyphenoxy)-2-hydroxypropylamino]-cyclohexyl)-2-imidazolidinon-hemifumarat] | -79.3 | deutliche | deutliche | ~80 | Herzfrequenz [1]: herabsetzen; mittlerer arterieller Druck [1]: ununterbrochene Verringerung; Verminderung des intraokularen Druckes (normotensiven Kaninchen; concentration about 20 nM): deutliche Verminderung
C#CCOc1ccccc1OCC(O)CN[C@H]1CC[C@H](N2CCNC2=O)CC1 (mixture of isomers) [Beispiel 3c] | -30.0 |  |  | ~4 | 
O=C1NCCN1[C@H]1CC[C@@H](NCC(O)COc2ccccc2OCC2CC2)CC1 (mixture of isomers) [Beispiel 3m] |  | deutliche | deutliche |  | Herzfrequenz [1]: herabsetzen; mittlerer arterieller Druck [1]: ununterbrochene Verringerung
O=C1NCCN1[C@H]1CC[C@@H](NC[C@H](O)COc2ccccc2OCC2CC2)CC1 [Beispiel 2a, (S)-cis-1-(4-[3-(o-Cyclopropylmethoxyphenoxy)-2-hydroxypropylamino]-cyclohexyl)-2-imidazolidinon-hemifumarat] |  | deutliche | deutliche | ~5 | Abnahme des Bludrucks ([2]; 30 mg/kg p.o. once daily for 2 days): -75.5 mm Hg; Verminderung des intraokularen Druckes (normotensiven Kaninchen; concentration about 6,4 nM): deutliche Verminderung
COc1ccccc1OCC(O)CN[C@H]1CC[C@@H](N2CCNC2=O)CC1 (stereo partly drawn) [Beispiel 3a] | -39.3 |  |  |  | 
C#CCOc1cccc(OCC(O)CN[C@H]2CC[C@@H](N3CCNC3=O)CC2)c1 (stereo partly drawn) [Beispiel 3d] | -52.3 |  |  |  | 
N#Cc1ccccc1OCC(O)CN[C@H]1CC[C@@H](N2CCNC2=O)CC1 (stereo partly drawn) [Beispiel 3f] | -11.0 |  |  |  | 
N#Cc1ccccc1OCC(O)CN[C@H]1CC[C@H](N2CCNC2=O)CC1 (stereo partly drawn) [Beispiel 3g] | -33.0 |  |  |  | 
O=C1NCCN1[C@H]1CC[C@@H](NCC(O)COc2ccccc2-n2cccc2)CC1 (stereo partly drawn) [Beispiel 3h] | -68.0 |  |  |  | 
COCCc1ccc(OCC(O)CN[C@H]2CC[C@@H](N3CCNC3=O)CC2)cc1 (stereo partly drawn) [Beispiel 3k] | -17.6 |  |  |  | 
